Assay results as given in patent publication US4001248A, “N-cycloalkylmethyl decahydroisoquinolines” (Eli Lilly and Company, priority 1974, dated 1977).
Where “and” joins values, the source holds several entries; their conditions need not be identical. Identical values can stand only once. Counter-ions that a name gives are not always drawn. Like-named read-outs stand apart in the source and are kept apart here.

What was measured:
[1] = toxicity (L.D.50); format: in vivo, mice; details: compared with dl mixture; listed as d(+) isomer
[2] = tested on: rat tail jerk; test: rat tail jerk assay (increase in reaction time over control); format: in vivo
From the text: The compounds of this invention are also active in the rat tail jerk assay, another standard pharmacologic test for analgesic activity of the opiate-type. Such activity is manifested as an increase in the reaction time of the animal in removing (jerking) its tail from a nearby heat stimulus (a resistance wire) after drug administration compared to control time (no drug administered). Table 2 which follows gives the increased reaction times over control times produced by the compounds of this invention when administered subcutaneously. In Tables 2 and 3, column 1 gives the name of the compound; column 2, the dose; column 3, time of observation after administration of the drug; column 4, the increase in reaction time above control in seconds; and column 5, the level of significance of the results ("p" value). […] All drugs were administered as aqueous solutions. More than one value for a given dose level indicates multiple determinations. The results are not averaged.

[3] = tested on: morphine; test: modified rat tail jerk assay, antagonism of morphine; format: in vivo, rats; details: for minimal effective dose: Rattus norvegicus, morphine 5 mg./kg. subcutaneous
Description: The ability of the compounds of this invention to antagonize the action of morphine, an opiate, is shown by the following modification of the aforementioned rat tail jerk assay: The standard assay procedure is used with the exception that a 7 amps. current is used instead of a 6 amps. current in the hot wire to decrease the measurable agonist effects of the antagonist. The drugs under test are then administered to groups of rats at different dose levels at different times prior to test, with a 5 mg./kg. dose of morphine invariably being administered 10 minutes prior to test. Positive evidence of antagonism is a decreased reaction time over that to be expected from the morphine. […] Among the compounds of this invention, those in which R in Structure I is cyclopropylmethyl are the preferred antagonists, showing activity in the above test procedure. […] In a series of determinations, it was ascertained that the minimum subcutaneous dose necessary to reduce the analgesic effects of a 5 mg./kg. subcutaneous dose of morphine was in the range 2.5-5.0 mg./kg. and the minimum oral dose, 5-10 mg./kg.

[4] = tested on: writhing in mice induced by the intraperitoneal injection of acetic acid; test: mouse-writhing test (inhibition of writhing induced by intraperitoneal acetic acid); format: in vivo; details: for ED50: Mus musculus, read-out: Median inhibiting dose (I.D.50)
From the text: In the Table, column 1 gives the name of the compund; column 2, the dosage in mg./kg. of mouse weight; column 3, the route of administration of the drug ("S.C." is subcutaneous and "or" is oral); and column 4, the percent inhibition found at the particular dose level. […] Median inhibiting doses (I.D.50) are also included in the Table.

[5] = tested on: morphine induced Straub tail; test: blocking of morphine induced Straub tail in mice; format: in vivo; details: 50 mg./kg. subcutaneous, morphine 40 mg./kg. subcutaneous
Description: In this assay, a 40 mg./kg. dose of morphine was administered to mice 15 minutes prior to assay, and the test drug at various intervals before assay. Trans-dl-1 -cyclopropylmethyl-3a-(m-hydroxyphenyl)-1,2,3,3a,4,5,6,7,7a,8-decahydroisoquinoline maleate gave a 100 percent block of the Straubed tail effected by a subcutaneous injection of 40 mg./kg. of morphine when the test drug was given at a dose of 50 mg./kg. subcutaneously 15 minutes prior to assay, and 80 percent when given 30 minutes prior to assay. The l(-) isomer gave 100 percent blocking on the morphine-induced Straub tail at 50 and 20 mg./kg. doses 15 and 30 minutes before assay.

[6] = subcutaneous, 50 mg./kg., 15 min
[7] = subcutaneous, 50 mg./kg., 30 min
[8] = subcutaneous, 50 mg./kg., 120 min
[9] = subcutaneous, 100 mg./kg., 15 min

In the case of `O=C(O)/C=C\C(=O)O.Oc1cccc([C@@]23CCCC[C@H]2CN(CC2CC2)CC3)c1` (stereo in doubt) [Trans-d(+)-1-cyclopropylmethyl-3a-(m-hydroxyphenyl)-1,2,3,3a] [Trans-d(+)-1-cyclopropylmethyl-3a-(m-hydroxyphenyl)-1,2,3,3a,4,5,6,7,7a,8-decahydroisoquinoline maleate], the “toxicity relative to the dl mixture” value [1] was “about the same toxicity as the dl mixture”, the “Increase in Reaction Time Over Control” value ([2]; oral, 100 mg./kg., 30 min) was 0 s and the “Increase in Reaction Time Over Control” value ([2]; oral, 100 mg./kg., 60 min) was 0 s. The “Increase in Reaction Time Over Control” value ([2]; oral, 100 mg./kg., 120 min) was “.40 s”, the “Increase in Reaction Time Over Control” value ([2]; oral, 150 mg./kg., 15 min) was 0 s and the “Increase in Reaction Time Over Control” value ([2]; oral, 150 mg./kg., 30 min) was 0 s. The “Increase in Reaction Time Over Control” value ([2]; oral, 150 mg./kg., 60 min) was “.35 s”, the “Increase in Reaction Time Over Control” value ([2]; oral, 150 mg./kg., 120 min) was “.30 s” and the “Increase in Reaction Time Over Control” value ([2]; oral, 150 mg./kg., 180 min) was “.30 s”. The “lethality in the rat tail jerk assay” value ([2]; oral, 200 mg./kg.) was “lethal”, the “Increase in Reaction Time Over Control” value ([2]; subcutaneous, 10 mg./kg., 15 min) was 0 s and the “Increase in Reaction Time Over Control” value [2, 6] was “.25 s”. For the same compound, the “Increase in Reaction Time Over Control” value [2, 7] was 1.30 s, the “Increase in Reaction Time Over Control” value ([2]; subcutaneous, 50 mg./kg., 60 min) was 2.25 s and the “Increase in Reaction Time Over Control” value [2, 8] was “.10 s”. For the same compound, the “Increase in Reaction Time Over Control” value [2, 9] was “.50 s”, the “Increase in Reaction Time Over Control” value ([2]; subcutaneous, 100 mg./kg., 30 min) was 1.55 s and the “Increase in Reaction Time Over Control” value ([2]; subcutaneous, 100 mg./kg., 60 min) was 3.50 s. The “Increase in Reaction Time Over Control” value ([2]; subcutaneous, 100 mg./kg., 120 min) was 1.15 s, the morphine antagonistic effects ([3]; 100 mg./kg. subcutaneous, 60 minutes before test) was “shows morphine antagonistic effects” and the “% Inhibition” value ([4]; 5 mg./kg. S.C., reading at 0.25 hours) was “inact”. For the same compound, the “% Inhibition” value ([4]; 50 mg./kg. S.C., reading at 0.25 hours) was 44% and the “% Inhibition” value ([4]; 100 mg./kg. S.C., reading at 0.25 hours) was 51%.
For `Oc1cccc([C@]23CCCC[C@@H]2CN(CC2CC2)CC3)c1` (stereo in doubt) [Trans-dl-1-cyclopropylmethyl-3a-(m-hydroxyphenyl)-1,2,3,3a,4,5,6,7,7a,8-decahydroisoquinoline maleate], the “Increase in Reaction Time Over Control” value ([2]; oral, 5 mg./kg., 15 min) was 0 s, the “Increase in Reaction Time Over Control” value ([2]; oral, 10 mg./kg., 15 min) was “.90 s” and the “Increase in Reaction Time Over Control” value ([2]; oral, 15 mg./kg., 15 min) was “.95 s”. The “Increase in Reaction Time Over Control” value ([2]; oral, 20 mg./kg., 30 min) was 1.17 s, the “Increase in Reaction Time Over Control” value ([2]; oral, 20 mg./kg., 45 min) was 1.33 s and the “Increase in Reaction Time Over Control” value ([2]; oral, 25 mg./kg., 15 min) was 2.10 s. For the same compound, the “Increase in Reaction Time Over Control” value ([2]; oral, 25 mg./kg., 30 min) was “.30 s”, the “Increase in Reaction Time Over Control” value ([2]; oral, 50 mg./kg., 10 min) was 2.83 s and 2.73 s and 2.88 s and the “Increase in Reaction Time Over Control” value ([2]; oral, 50 mg./kg., 15 min) was 4.25 s and 4.92 s and 5.08 s. For the same compound, the “Increase in Reaction Time Over Control” value ([2]; oral, 50 mg./kg., 60 min) was 2.42 s, the “Increase in Reaction Time Over Control” value ([2]; oral, 50 mg./kg., 90 min) was 1.38 s and the “Increase in Reaction Time Over Control” value ([2]; oral, 50 mg./kg., 120 min) was 1.17 s. For the same compound, the “Increase in Reaction Time Over Control” value ([2]; oral, 100 mg./kg., 5 min) was “.55 s”, the “Increase in Reaction Time Over Control” value ([2]; oral, 100 mg./kg., 10 min) was 2.45 s and the “Increase in Reaction Time Over Control” value ([2]; oral, 100 mg./kg., 15 min) was 4.85 s and 7.46 s and 4.50 s. The “Increase in Reaction Time Over Control” value ([2]; oral, 100 mg./kg., 15 min, 20 sec. cut off) was 5.45 s, the “Increase in Reaction Time Over Control” value ([2]; oral, 100 mg./kg., 30 min) was 3.45 s and 4.05 s and 6.79 s and 4.38 s and the “Increase in Reaction Time Over Control” value ([2]; oral, 100 mg./kg., 60 min) was 2.05 s. For the same compound, the “Increase in Reaction Time Over Control” value ([2]; oral, 200 mg./kg., 15 min, 20 sec. cut off) was 7.25 s and 7.13 s, the “Increase in Reaction Time Over Control” value ([2]; oral, 200 mg./kg., 30 min) was 2.75 s and 1.42 s and the “Increase in Reaction Time Over Control” value ([2]; oral, 200 mg./kg., 45 min) was 5.79 s. For the same compound, the “Increase in Reaction Time Over Control” value ([2]; oral, 300 mg./kg., 15 min) was 7.75 s, the “Increase in Reaction Time Over Control” value ([2]; subcutaneous, 0.5 mg./kg., 15 min) was “.75 s” and the “Increase in Reaction Time Over Control” value ([2]; subcutaneous, 1 mg./kg., 15 min) was “.50 s”. The “Increase in Reaction Time Over Control” value ([2]; subcutaneous, 2 mg./kg., 15 min) was 2.21 s, the “Increase in Reaction Time Over Control” value ([2]; subcutaneous, 3 mg./kg., 15 min) was 2.04 s and the “Increase in Reaction Time Over Control” value ([2]; subcutaneous, 7 mg./kg., 15 min) was 4.25 s. The “Increase in Reaction Time Over Control” value ([2]; subcutaneous, 20 mg./kg., 15 min) was 5.17 s and 3.70 s, the “Increase in Reaction Time Over Control” value ([2]; subcutaneous, 25 mg./kg., 15 min) was 4.40 s and the “Increase in Reaction Time Over Control” value ([2]; subcutaneous, 30 mg./kg., 15 min, 20 sec. cut off) was 4.25 s. The “Increase in Reaction Time Over Control” value ([2]; subcutaneous, 40 mg./kg., 15 min) was 3.90 s, the “Increase in Reaction Time Over Control” value ([2]; subcutaneous, 50 mg./kg., 5 min, 15 sec. cut off) was 4.85 s and the “Increase in Reaction Time Over Control” value ([2]; subcutaneous, 50 mg./kg., 10 min, 15 sec. cut off) was 4.95 s. The “Increase in Reaction Time Over Control” value ([2]; subcutaneous, 50 mg./kg., 10 min, 20 sec. cut off) was 4.85 s, the “Increase in Reaction Time Over Control” value [2, 6] was 4.0 s and 5.98 s and the “Increase in Reaction Time Over Control” value ([2]; subcutaneous, 50 mg./kg., 15 min, 15 sec. cut off) was 6.50 s. For the same compound, the “Increase in Reaction Time Over Control” value ([2]; subcutaneous, 50 mg./kg., 15 min, 20 sec. cut off) was 6.08 s, the “Increase in Reaction Time Over Control” value [2, 7] was 5.75 s and the “Increase in Reaction Time Over Control” value ([2]; subcutaneous, 50 mg./kg., 30 min, 15 sec. cut off) was 5.10 s. For the same compound, the “Increase in Reaction Time Over Control” value ([2]; subcutaneous, 50 mg./kg., 45 min) was 3.00 s, the “Increase in Reaction Time Over Control” value ([2]; subcutaneous, 50 mg./kg., 90 min) was 1.85 s and the “Increase in Reaction Time Over Control” value [2, 8] was 2.45 s. The “Increase in Reaction Time Over Control” value ([2]; subcutaneous, 50 mg./kg., 180 min) was 1.80 s, the “Increase in Reaction Time Over Control” value ([2]; subcutaneous, 60 mg./kg., 15 min, 20 sec. cut off) was 4.40 s and the “Increase in Reaction Time Over Control” value [2, 9] was 4.15 s. For the same compound, the “Increase in Reaction Time Over Control” value ([2]; subcutaneous, 200 mg./kg., 15 min) was 5.65 s, the “blocking of the analgesic effect of morphine” value ([3]; 50 mg./kg. subcutaneous, 30 and 60 minutes prior, morphine 5 mg./kg.) was “very effectively blocked the analgesic effect of 5 mg./kg. of morphine” and the minimal effective dose ([3]; sc, subcutaneous, read-out: minimum subcutaneous dose necessary to reduce the analgesic effects of morphine) was 2.5 to 5 mg/kg. The minimal effective dose ([3]; oral, read-out: minimum oral dose necessary to reduce the analgesic effects of morphine) was 5 to 10 mg/kg, the antagonism of morphine ([3]; dose not stated) was “antagonizes the effects of morphine” and the “block of the Straubed tail” value ([5]; 15 minutes prior) was 100%. The “block of the Straubed tail” value ([5]; 30 minutes prior) was 80%, the “% Inhibition” value ([4]; 2 mg./kg. S.C., reading at 0.5 hours) was 6% and the “% Inhibition” value ([4]; 5 mg./kg. S.C., reading at 0.5 hours) was 66%. For the same compound, the “% Inhibition” value ([4]; 10 mg./kg. S.C., reading at 0.5 hours) was 72%, the “% Inhibition” value ([4]; 20 mg./kg. S.C., reading at 0.5 hours) was 99% and the “% Inhibition” value ([4]; 20 mg./kg. oral, reading at 0.5 hours) was 46%. For the same compound, the “% Inhibition” value ([4]; 50 mg./kg. oral, reading at 0.5 hours) was 56%, the “% Inhibition” value ([4]; 100 mg./kg. S.C., reading at 0.5 hours) was 100% and the “% Inhibition” value ([4]; 100 mg./kg. oral, reading at 0.5 hours) was 92%. For the same compound, the ED50 ([4]; sc, S.C.) was 2 to 5 mg/kg and the ED50 ([4]; oral) was 20 to 50 mg/kg.
